# From paper PMC5013068, “Fragment-Based Whole Cell Screen Delivers Hits against M. tuberculosis and Non-tuberculous Mycobacteria” (Frontiers in Microbiology, 2016)
# Columns and labels:
# [1] = tested on: Mycobacterium tuberculosis H37Rv (ATCC 27294); assay: Growth inhibition dose response against M. tuberculosis; type: cell-based; conditions: 7H9 broth, OD600, twofold serial dilution from 500 μM
# [2] = tested on: M. bovis BCG (ATCC 35734); assay: microbe, parasite or virus in culture; type: cell-based; conditions: for MIC50: Mycobacterium tuberculosis variant bovis BCG, 120 h, read-out: M. bovis BCG MIC50, 7H9 broth, 5 days, OD600
# [3] = tested on: Staphylococcus aureus (ATCC 43300, MRSA); assay: microbe, parasite or virus in culture; type: cell-based; conditions: 18 h, read-out: S. aureus Growth Inhibition Spectrum (MIC80)
# [4] = tested on: Pseudomonas aeruginosa (ATCC 27853); assay: Antibacterial growth inhibition, P. aeruginosa; type: cell-based; conditions: ATCC27853, twofold serial dilution, max 100 μM, 18 h, read-out: P. aeruginosa Growth Inhibition Spectrum (MIC80)
# [5] = tested on: Acinetobacter baumannii (ATCC 19606); assay: Antibacterial growth inhibition, A. baumannii; type: cell-based; conditions: ATCC19606, twofold serial dilution, max 100 μM, 18 h, read-out: A. baumannii Growth Inhibition Spectrum (MIC80)
# M. avium 11 = assay: Growth inhibition dose response against M. avium; type: cell-based; conditions: Mycobacterium avium, 11, 120 h; 5 days, max 500 μM
# [6] = tested on: M. abscessus Bamboo (smooth morphotype); assay: Growth inhibition dose response against M. abscessus; type: cell-based; conditions: Mycobacteroides abscessus, 72 h; 3 days, max 500 μM
# [7] = tested on: Cryptococcus neoformans (ATCC 208821); assay: Antifungal growth inhibition, C. neoformans; type: cell-based; conditions: ATCC208821, twofold serial dilution, max 100 μM, 24 h, resazurin, read-out: C. neoformans Growth Inhibition Spectrum (MIC80)
# [8] = MTS cytotoxicity assay, A549; conditions: human, A549 cells (ATCC CCL-185)
# [9] = tested on: A549 (ATCC CCL-185) cells; assay: MTS cytotoxicity assay, A549; conditions: selectivity index vs M. tuberculosis MIC50
# [10] = tested on: Klebsiella pneumoniae (ATCC 700603, MDR); assay: microbe, parasite or virus in culture; type: cell-based; conditions: ATCC700603, 18 h, read-out: K. pneumoniae Growth Inhibition Spectrum (MIC80)
# [11] = MTS cytotoxicity assay, HepG2; conditions: human, HepG2 cells (ATCC HB.8065)
# [12] = tested on: HepG2 (ATCC HB.8065) cells; assay: MTS cytotoxicity assay, HepG2; conditions: selectivity index vs M. tuberculosis MIC50
# [13] = tested on: Escherichia coli (ATCC 25922); assay: Antibacterial growth inhibition, E. coli; type: cell-based; conditions: ATCC25922, twofold serial dilution, max 100 μM, 18 h, read-out: E. coli Growth Inhibition Spectrum (MIC80)
# Red blood cells = assay: Hemolytic activity (red blood cell lysis assay); conditions: for RBC SI: selectivity index vs M. tuberculosis MIC50; for RBC HC50: hemolysis, 24 h in PBS, unit not given, same scale as MIC50, i not defined
# [14] = tested on: Candida albicans (ATCC 90028); assay: Antifungal growth inhibition, C. albicans; type: cell-based; conditions: ATCC90028, twofold serial dilution, max 100 μM, 24 h, read-out: C. albicans Growth Inhibition Spectrum (MIC80)
structure (smiles),measurement,setting,value
CCNc1nc(C)nc2sc(CC)cc12 [Fragment 1],MIC50,[1],40 µM
same,M. bovis BCG MIC50,"[2]; 7H9 broth, 5 days, OD600",4.5 µM
same,MIC50,[2],5 µM
same,MIC80,[3],> 100 µM
same,MIC80,[4],> 100 µM
same,MIC80,[5],> 100 µM
same,MIC50,M. avium 11,> 500 µM
same,MIC50,[6],> 500 µM
same,MIC80,[7],> 100 µM
same,CC50,[8],> 2500 µM
same,A549 SI,[9],>24
same,MIC80,[10],> 100 µM
same,CC50,[11],> 2500 µM
same,HepG2 SI,[12],>24
same,MIC80,[13],> 100 µM
same,RBC SI,Red blood cells,>24
same,MIC80,[14],> 100 µM
Cc1c(C)n(CC(O)CNC2CCCC2)c2c(Cl)cccc12 (centres unmarked) [Fragment 4],MIC50,[1],55 µM
same,MIC50,[2],56 µM
same,MIC80,[3],> 100 µM
same,MIC80,[4],> 100 µM
same,MIC80,[5],> 100 µM
same,MIC50,M. avium 11,53 µM
same,MIC50,[6],125 µM
same,MIC80,[7],> 100 µM
same,CC50,[8],60 µM
same,MIC80,[10],> 100 µM
same,CC50,[11],45 µM
same,MIC80,[13],> 100 µM
same,RBC HC50,Red blood cells,125
same,MIC80,[14],> 100 µM
Cc1nc(-c2c[nH]c3ccccc23)cs1 [Fragment 9],MIC50,[1],126 µM
same,MIC50,[2],39 µM
same,MIC80,[3],> 100 µM
same,MIC80,[4],> 100 µM
same,MIC80,[5],> 100 µM
same,MIC50,M. avium 11,> 500 µM
same,MIC50,[6],> 500 µM
same,MIC80,[7],> 100 µM
same,CC50,[8],> 2500 µM
same,A549 SI,[9],>20
same,MIC80,[10],> 100 µM
same,CC50,[11],500 µM
same,HepG2 SI,[12],4
same,MIC80,[13],> 100 µM
same,RBC SI,Red blood cells,>18
same,MIC80,[14],> 100 µM
Clc1ccc(Oc2cnns2)c2ncccc12 [Fragment 2],MIC50,[1],43 µM
same,MIC50,[2],56 µM
same,MIC80,[3],> 100 µM
same,MIC80,[4],> 100 µM
same,MIC80,[5],> 100 µM
same,MIC50,M. avium 11,130 µM
same,MIC50,[6],> 500 µM
same,MIC80,[7],> 100 µM
same,CC50,[8],> 2500 µM
same,A549 SI,[9],>7
same,MIC80,[10],> 100 µM
same,CC50,[11],200 µM
same,MIC80,[13],> 100 µM
same,RBC HC50,Red blood cells,250
same,MIC80,[14],> 100 µM
COn1c(-c2ccc(Cl)cc2)nc2ncccc21 [Fragment 7],MIC50,[1],104 µM
same,MIC50,[2],19 µM
same,MIC80,[3],> 100 µM
same,MIC80,[4],> 100 µM
same,MIC80,[5],> 100 µM
same,MIC50,M. avium 11,145 µM
same,MIC50,[6],150 µM
same,MIC80,[7],> 100 µM
same,CC50,[8],1800 µM
same,A549 SI,[9],17
same,MIC80,[10],> 100 µM
same,CC50,[11],850 µM
same,HepG2 SI,[12],8
same,MIC80,[13],> 100 µM
same,RBC SI,Red blood cells,>23
same,MIC80,[14],> 100 µM
N#CSC1C=CS(=O)(=O)C1 (centres unmarked) [Fragment 6],MIC50,[1],92 µM
same,MIC50,[2],53 µM
same,MIC80,[3],100 µM
same,MIC80,[4],> 100 µM
same,MIC80,[5],100 µM
same,MIC50,M. avium 11,> 500 µM
same,MIC50,[6],> 500 µM
same,MIC80,[7],> 100 µM
same,CC50,[8],1000 µM
same,A549 SI,[9],11
same,MIC80,[10],> 100 µM
same,CC50,[11],75 µM
same,MIC80,[13],> 100 µM
same,RBC HC50,Red blood cells,2200
same,RBC SI,Red blood cells,24
same,MIC80,[14],100 µM
O=C(c1cc2cc(F)ccc2s1)N1CCC1 [Fragment 5],MIC50,[1],60 µM
same,MIC50,[2],68 µM
same,MIC80,[3],> 100 µM
same,MIC80,[4],> 100 µM
same,MIC80,[5],> 100 µM
same,MIC50,M. avium 11,> 500 µM
same,MIC50,[6],> 500 µM
same,MIC80,[7],> 100 µM
same,CC50,[8],> 2500 µM
same,A549 SI,[9],>41
same,MIC80,[10],> 100 µM
same,CC50,[11],> 2500 µM
same,HepG2 SI,[12],>41
same,MIC80,[13],> 100 µM
same,RBC SI,Red blood cells,>41
same,MIC80,[14],> 100 µM
Cc1cc2nc(CN)[nH]c2cc1C [Fragment 10],MIC50,[1],131 µM
same,MIC50,[2],53 µM
same,MIC80,[3],> 100 µM
same,MIC80,[4],> 100 µM
same,MIC80,[5],> 100 µM
same,MIC50,M. avium 11,> 500 µM
same,MIC50,[6],> 500 µM
same,MIC80,[7],> 100 µM
same,CC50,[8],1900 µM
same,A549 SI,[9],15
same,MIC80,[10],> 100 µM
same,CC50,[11],900 µM
same,HepG2 SI,[12],7
same,MIC80,[13],> 100 µM
same,RBC HC50,Red blood cells,2100
same,RBC SI,Red blood cells,16
same,MIC80,[14],> 100 µM
COc1cccc2sc(S(C)(=O)=O)nc12 [Fragment 3],MIC50,[1],52 µM
same,MIC50,[2],20 µM
same,MIC80,[3],> 100 µM
same,MIC80,[4],> 100 µM
same,MIC80,[5],> 100 µM
same,MIC50,M. avium 11,> 500 µM
same,MIC50,[6],> 500 µM
same,MIC80,[7],> 100 µM
same,MIC80,[10],> 100 µM
same,MIC80,[13],> 100 µM
same,RBC SI,Red blood cells,>13
same,MIC80,[14],> 100 µM
CC1CC(N)=NN1c1ccc(Cl)cn1 (centres unmarked) [Fragment 8],MIC50,[1],123 µM
same,MIC50,[2],13 µM
same,MIC80,[3],> 100 µM
same,MIC80,[4],> 100 µM
same,MIC80,[5],100 µM
same,MIC50,M. avium 11,275 µM
same,MIC50,[6],> 500 µM
same,MIC80,[7],> 100 µM
same,CC50,[8],> 2500 µM
same,A549 SI,[9],>20
same,MIC80,[10],> 100 µM
same,CC50,[11],900 µM
same,HepG2 SI,[12],7
same,MIC80,[13],100 µM
same,RBC SI,Red blood cells,>20
same,MIC80,[14],100 µM
